Test results taken from US8614216B2.

Tests used:
[1] = Solid state chemical stability, HPLC analysis; type: physicochemical; conditions: open flask
Description: (§1) Samples were pulled at pre-determined time-points and analyzed for chemical stability.

[2] = Solution state chemical stability, HPLC analysis; type: physicochemical; conditions: sealed vial
Description: as §1

[3] = Dynamic vapor sorption (DVS) hygroscopicity experiment; type: physicochemical
Description: All DVS measurements were carried out at 2.5% relative humidity change per hour.

physchem = conditions: 23 °C, water, thermodynamic from solid
[4] = Moisture induced weight change in lactate salts; type: physicochemical; conditions: 55% RH; listed as Lactate-trial 3
[5] = Compaction studies (Carver Press, tablet hardness tester); type: physicochemical; conditions: 200 mg at 5000 psi, 0.8 cm die
Description: The resulting tensile strength and thickness of the compacts were measured using a VK 200 Tablet Hardness Tester and Mitutoyo thickness gauge.

[6] = Physical stability of the amorphous form on storage

SMILES: CN1CCN(c2ccc3nc(-c4c(N)c5c(F)cccc5[nH]c4=O)[nH]c3c2)CC1 [Free base]
- Area % at Time = 0 ([1]; 30° C./60% Relative humidity): 97.38 Area %
- Area % at Time = 6 weeks ([1]; 30° C./60% Relative humidity): 97.83 Area %
- Area % at Time = 0 ([1]; 40° C./70% Relative humidity): 97.77 Area %
- Area % at Time = 6 weeks ([1]; 40° C./70% Relative humidity): 98.23 Area %

SMILES: CN1CCN(c2ccc3nc(-c4c(N)c5c(F)cccc5[nH]c4=O)[nH]c3c2)CC1 [Bis-lactate]
- Area % at Time = 0 ([1]; 40° C./70% Relative humidity): 98.99 Area %
- Area % at Time = 6 weeks ([1]; 40° C./70% Relative humidity): 97.92 Area %

SMILES: CC(O)C(=O)O.CN1CCN(c2ccc3nc(-c4c(N)c5c(F)cccc5[nH]c4=O)[nH]c3c2)CC1 [Form A]
- Area % at Time = 0 ([2]; 5° C.): 98.80 Area %
- Area % at Time = 7 days ([2]; 5° C.): 98.60 Area %
- Area % at Time = 0 ([2]; ambient temperature): 98.80 Area %
- Area % at Time = 7 days ([2]; ambient temperature): 98.71 Area %
- Hygroscopicity in DVS experiment ([3]; below about 80% r.h., 2.5% relative humidity change per hour): not hygroscopic
- Water uptake in DVS experiment ([3]; exposure to r.h. conditions above 90%): significant water uptake
- solubility (physchem): > 400 mg/mL
- Moisture induced % weight change [4]: 0.08%
- Forms Compact ([5]; listed as Lactate-trial 1): Yes
- Tensile strength of compact ([5]; listed as Lactate-trial 1): 13.8 SC—Strong Cobb
- Thickness of compact ([5]; listed as Lactate-trial 1): 3.06 mm
- Forms Compact ([5]; listed as Lactate-trial 2): Yes
- Tensile strength of compact ([5]; listed as Lactate-trial 2): 17.9 SC—Strong Cobb
- Thickness of compact ([5]; listed as Lactate-trial 2): 2.92 mm
- Forms Compact ([5]; listed as Lactate-trial 3): Yes
- Tensile strength of compact ([5]; listed as Lactate-trial 3): 16.1 SC—Strong Cobb
- Thickness of compact ([5]; listed as Lactate-trial 3): 2.97 mm
- Forms Compact ([5]; listed as lactate salt): forms strong compacts without a tendency to cap or chip
- Area % at Time = 0 ([1]; 30° C./60% Relative humidity): 98.41 Area %
- Area % at Time = 6 weeks ([1]; 30° C./60% Relative humidity): 99.04 Area %
- Area % at Time = 0 ([1]; 40° C./70% Relative humidity): 98.46 Area %
- Area % at Time = 6 weeks ([1]; 40° C./70% Relative humidity): 98.55 Area %

SMILES: CC(O)C(=O)O.CN1CCN(c2ccc3nc(-c4c(N)c5c(F)cccc5[nH]c4=O)[nH]c3c2)CC1 [amorphous form]
- Time stable ([6]; 75% relative humidity and 40° C.): more than 2 days
- Stability of the solid form ([6]; ambient conditions): stable
